Measurements: patent US10647719B2, “Bicyclic compounds as dual ATX/CA inhibitors” (Hoffmann-La Roche Inc., priority 2015, dated 2020)
Read-outs that look alike come from different tables or passages of the source.

Legend:
[1] = biological target: human ATX (Homo sapiens (Human), UniProt Q13822); assay: Human ATX enzyme inhibition assay (fluorescence quenching, MR121 substrate); format: biochemical
Protocol: Human ATX Enzyme Inhibition Assay
ATX inhibition was measured by a fluorescence quenching assay using a specifically labeled substrate analogue (MR121 substrate). To obtain this MR121 substrate, BOC and TBS protected 6-amino-hexanoic acid (R)-3-({2-[3-(2-{2-[2-(2-amino-ethoxy)-ethoxy]-ethoxy}-ethoxy)-propionylamino]-ethoxy}-hydroxy-phosphoryloxy)-2-hydroxy-propyl ester (Ferguson et al., Org Lett 2006, 8 (10), 2023) was labeled with MR121 fluorophore (CAS 185308-24-1, 1-(3-carboxypropyl)-11-ethyl-1,2,3,4,8,9,10,11-octahydro-dipyrido[3,2-b:2′,3′-i]phenoxazin-13-ium) on the free amine of the ethanolamine side and then, after deprotection, subsequently with tryptophan on the side of the aminohexanoic acid.
(§1) Assay working solutions were made as follows:
Assay buffer (50 mM Tris-HCl, 140 mM NaCl, 5 mM KCl, 1 mM CaCl2, 1 mM MgCl2, 0.01% Triton-X-100, pH 8.0;
ATX solution: ATX (human His-tagged) stock solution (1.08 mg/mL in 20 mM bicine, pH 8.5, 0.15 M NaCl, 10% glycerol, 0.3% CHAPS, 0.02% NaN3), diluted to 1.4-2.5× final concentration in assay buffer;
MR121 substrate solution: MR121 substrate stock solution (800 μM MR121 substrate in DMSO), diluted to 2-5× final concentration in assay buffer.
Test compounds (10 mM stock in DMSO, 8 μL) were obtained in 384 well sample plates (Corning Costar #3655) and diluted with 8 μL DMSO. Row-wise serial dilutions were made by transferring 8 μL cpd solution to the next row up to row O. The compound and control solutions were mixed five times and 2 μL were transferred to 384 well assay plates (Corning Costar #3702). Then, 15 μL of 41.7 nM ATX solution was added (30 nM final concentration), mixed five times and then incubated for 15 minutes at 30° C. 10 μL of MR121 substrate solution was added (1 μM final concentration), mixed 30 times and then incubated for 15 minutes at 30° C.

[2] = biological target: Human carbonic anhydrase II (hCA-II) (Homo sapiens (Human), UniProt P00918); assay: Human carbonic anhydrase-II inhibition assay (absorbance, 4-nitrophenyl acetate substrate); format: biochemical
Protocol: Human Carbonic Anhydrase-II Inhibition Assay
Human carbonic anhydrase II (hCA-II) inhibition was measured by an absorbance method using 4-nitrophenyl acetate (4-NPA) as its substrate. 4-NPA can be catalyzed by active hCA II via a zinc-hydroxide mechanism. The nitrophenolate in the products can be ionized to generate a bright yellow anion with high absorbance at 348 to 400 nm, as reported in the literature (Armstrong et al., J. Biol. Chem. 1966, 241, 5137-5149). OD340 nm was chosen for detecting hCA II substrate conversion.
as §1
Assay buffer: 50 mM MOPS, 33 mM Na2SO4, 1 mM EDTA, 0.5 mg/ml BSA, pH 7.5;
Enzyme solution: hCA-II (human, full length) stock solution (1.0 mg/mL in 20 mM HEPES, 50 mM NaCl, pH 7.4), diluted to 2133× final concentration in assay buffer;
4-NPA substrate solution: 4-NPA substrate stock solution (250 mM in DMSO, stored at −20° C.), diluted to 50× final concentration in deionized water.
Test compounds (10 mM stock in DMSO, 100 μL) were obtained in […] sample plates (Corning Costar #3655) and diluted to 0.5 mM. Column-wise serial dilutions were made by transferring 20 μL compound solutions to the next column, from column 3 up to 22. After this, 1.2 μL were transferred to 384 well assay plates (Corning Costar #3701). Then 30 μL of 16 nM hCA II solution was added (8 nM final concentration), mixed five times. 30 μL of 4-NPA substrate solution was added (2.5 mM final concentration), mixed five times. Absorbance at 340 nm was then measured immediately as time zero. The assay plates were incubated at room temperature for 1 hour and then measured as time 1 hour (Perkin Elmer EnVision 2103; Filter: Photometric 340; Light intensity 60%; Number of flashes: 10). IC50 values and Ki values were calculated from these readouts.

[3] = human His-tagged ATX 30 nM, MR121 substrate 1 μM, 30° C., read-out: ATX IC50
[4] = hCA II 8 nM, 4-NPA 2.5 mM, absorbance 340 nm, room temperature 1 hour, read-out: CA-II IC50

Row | IC50 [1, 3] | IC50 [2, 4] | IC50 [1] | IC50 [2] | Structure (SMILES)
1 | 2 nM | 20.6 nM |  |  | CC(C)(C)C(=O)Nc1cc(Cl)cnc1COC(=O)N1CC2=C(C1)CN(C(=O)c1ccc(S(N)(=O)=O)c(F)c1)C2 [Example 1.13, [5-chloro-3-(2,2-dimethylpropanoylamino)pyridin-2-yl]methyl 2-(3-fluoro-4-sulfamoylbenzoyl)-1,3,4,6-tetrahydropyrrolo[3,4-c]pyrrole-5-carboxylate]
2 | 15 nM | 16.6 nM |  |  | CC(C)(C)C(=O)Nc1cc(Cl)cnc1COC(=O)N1CC2=C(C1)CN(C(=O)c1ccc(S(N)(=O)=O)c(F)c1F)C2 [Example 1.14, [5-chloro-3-(2,2-dimethylpropanoylamino)pyridin-2-yl]methyl 2-(2,3-difluoro-4-sulfamoylbenzoyl)-1,3,4,6-tetrahydropyrrolo[3,4-c]pyrrole-5-carboxylate]
3 | 8 nM | 12.9 nM |  |  | CC(C)(C)C(=O)Nc1cc(Cl)cnc1COC(=O)N1CC2=C(C1)CN(C(=O)c1c(F)cc(S(N)(=O)=O)cc1F)C2 [Example 1.15, [5-chloro-3-(2,2-dimethylpropanoylamino)pyridin-2-yl]methyl 2-(2,6-difluoro-4-sulfamoylbenzoyl)-1,3,4,6-tetrahydropyrrolo[3,4-c]pyrrole-5-carboxylate]
4 | 9 nM | 10.2 nM |  |  | CC(C)(C)C(=O)Nc1cc(Cl)cnc1COC(=O)N1CC2=C(C1)CN(C(=O)c1cc(F)c(S(N)(=O)=O)cc1F)C2 [Example 1.16, [5-chloro-3-(2,2-dimethylpropanoylamino)pyridin-2-yl]methyl 2-(2,5-difluoro-4-sulfamoylbenzoyl)-1,3,4,6-tetrahydropyrrolo[3,4-c]pyrrole-5-carboxylate]
5 | 11 nM | 4 nM |  |  | Cc1ccc(NC(=O)C(C)(C)C)c(COC(=O)N2CC3=C(C2)CN(C(=O)c2ccc(S(N)(=O)=O)cc2F)C3)n1 [Example 1.17, [3-(2,2-dimethylpropanoylamino)-6-methylpyridin-2-yl]methyl 2-(2-fluoro-4-sulfamoylbenzoyl)-1,3,4,6-tetrahydropyrrolo[3,4-c]pyrrole-5-carboxylate]
6 | 2 nM | 1 nM |  |  | CC(C)(C)C(=O)Nc1ccc(Cl)nc1COC(=O)N1CC2=C(C1)CN(C(=O)c1ccc(S(N)(=O)=O)cc1F)C2 [Example 1.18, [6-chloro-3-(2,2-dimethylpropanoylamino)pyridin-2-yl]methyl 2-(2-fluoro-4-sulfamoylbenzoyl)-1,3,4,6-tetrahydropyrrolo[3,4-c]pyrrole-5-carboxylate]
7 | 10 nM | 4 nM |  |  | CC(C)(C)C(=O)Nc1cccnc1COC(=O)N1CC2=C(C1)CN(C(=O)c1ccc(S(N)(=O)=O)cc1F)C2 [Example 1.19, [3-(2,2-dimethylpropanoylamino)pyridin-2-yl]methyl 2-(2-fluoro-4-sulfamoylbenzoyl)-1,3,4,6-tetrahydropyrrolo[3,4-c]pyrrole-5-carboxylate]
8 | 15 nM | 2 nM |  |  | CC(C)(C)C(=O)Nc1ccc(Cl)nc1COC(=O)N1CC2=C(C1)CN(C(=O)c1cc(F)c(S(N)(=O)=O)cc1F)C2 [Example 1.20, [6-chloro-3-(2,2-dimethylpropanoylamino)pyridin-2-yl]methyl 2-(2,5-difluoro-4-sulfamoylbenzoyl)-1,3,4,6-tetrahydropyrrolo[3,4-c]pyrrole-5-carboxylate]
9 | 12 nM | 3 nM |  |  | CC(C)(C)C(=O)Nc1ccc(Cl)nc1COC(=O)N1CC2=C(C1)CN(C(=O)c1ccc(S(N)(=O)=O)c(F)c1)C2 [Example 1.21, [6-chloro-3-(2,2-dimethylpropanoylamino)pyridin-2-yl]methyl 2-(3-fluoro-4-sulfamoylbenzoyl)-1,3,4,6-tetrahydropyrrolo[3,4-c]pyrrole-5-carboxylate]
10 | 6 nM | 2 nM |  |  | CC(C)(C)C(=O)Nc1ccc(Cl)nc1COC(=O)N1CC2=C(C1)CN(C(=O)c1ccc(S(N)(=O)=O)c(F)c1F)C2 [Example 1.22, [6-chloro-3-(2,2-dimethylpropanoylamino)pyridin-2-yl]methyl 2-(2,3-difluoro-4-sulfamoylbenzoyl)-1,3,4,6-tetrahydropyrrolo[3,4-c]pyrrole-5-carboxylate]
11 | 10 nM | 1 nM |  |  | CC(C)(C)C(=O)Nc1ccc(Cl)nc1COC(=O)N1CC2=C(C1)CN(C(=O)c1c(F)cc(S(N)(=O)=O)cc1F)C2 [Example 1.23, [6-chloro-3-(2,2-dimethylpropanoylamino)pyridin-2-yl]methyl 2-(2,6-difluoro-4-sulfamoylbenzoyl)-1,3,4,6-tetrahydropyrrolo[3,4-c]pyrrole-5-carboxylate]
12 | 8 nM | 18 nM |  |  | CC(C)(C)C(=O)Nc1cc(C#N)cnc1COC(=O)N1CC2=C(C1)CN(C(=O)c1cc(F)c(S(N)(=O)=O)cc1F)C2 [Example 1.27, [5-cyano-3-(2,2-dimethylpropanoylamino)pyridin-2-yl]methyl 2-(2,5-difluoro-4-sulfamoylbenzoyl)-1,3,4,6-tetrahydropyrrolo[3,4-c]pyrrole-5-carboxylate]
13 |  |  | 11 nM | 1.2 nM | CC(C)(C)C(=O)Nc1cc(Cl)c(Cl)nc1COC(=O)N1CC2=C(C1)CN(C(=O)c1ccc(S(N)(=O)=O)cc1F)C2 [Example 1.29, [5,6-dichloro-3-(2,2-dimethylpropanoylamino)pyridin-2-yl]methyl 2-(2-fluoro-4-sulfamoylbenzoyl)-1,3,4,6-tetrahydropyrrolo[3,4-c]pyrrole-5-carboxylate]
14 |  |  | 10 nM | 4.2 nM | CC(C)(C)C(=O)Nc1cc(Cl)c(Cl)nc1COC(=O)N1CC2=C(C1)CN(C(=O)c1ccc(S(N)(=O)=O)c(F)c1F)C2 [Example 1.30, [5,6-dichloro-3-(2,2-dimethylpropanoylamino)pyridin-2-yl]methyl 2-(2,3-difluoro-4-sulfamoylbenzoyl)-1,3,4,6-tetrahydropyrrolo[3,4-c]pyrrole-5-carboxylate]
15 |  |  | 10 nM | 11.5 nM | CC(C)(C)C(=O)Nc1cc(Cl)c(Cl)nc1COC(=O)N1CC2=C(C1)CN(C(=O)c1c(F)cc(S(N)(=O)=O)cc1F)C2 [Example 1.31, [5,6-dichloro-3-(2,2-dimethylpropanoylamino)pyridin-2-yl]methyl 2-(2,6-difluoro-4-sulfamoylbenzoyl)-1,3,4,6-tetrahydropyrrolo[3,4-c]pyrrole-5-carboxylate]
16 |  |  | 5 nM | 2.5 nM | CC(C)(C)C(=O)Nc1cc(C(F)(F)F)cnc1COC(=O)N1CC2=C(C1)CN(C(=O)c1ncc(S(N)(=O)=O)cc1F)C2 [Example 1.32, [3-(2,2-dimethylpropanoylamino)-5-(trifluoromethyl)pyridin-2-yl]methyl 2-(3-fluoro-5-sulfamoylpyridine-2-carbonyl)-1,3,4,6-tetrahydropyrrolo[3,4-c]pyrrole-5-carboxylate]
17 |  |  | 1 nM | 2.3 nM | NS(=O)(=O)c1ccc(C(=O)N2CC3=C(CN(C(=O)c4cc(OCC5CCOCC5)nc(C5CC5)c4)C3)C2)c(F)c1F [Example 1.33, 4-[5-[2-cyclopropyl-6-(oxan-4-ylmethoxy)pyridine-4-carbonyl]-1,3,4,6-tetrahydropyrrolo[3,4-c]pyrrole-2-carbonyl]-2,3-difluorobenzenesulfonamide]
